Results published in article PMC11483813, “Bombesin-Targeted Delivery of β-Carboline-Based Ir(III) and Ru(II) Photosensitizers for a Selective Photodynamic Therapy of Prostate Cancer” (Inorganic Chemistry, 2024).
Several values for one entry are separate records, joined by “and”; a condition that tells them apart may be missing. Equal entries are not always repeated. Where two headings read alike, the source gives them in different places. Residues, ends and D or L forms follow the SMILES beside them. *: point of attachment. X1 = Cn1c2ccccc2c2ccnc(-c3ccc(/C=C/C(=O)*)cn3)c21

Legend:
Format in all cases: cell-based, human
[1] = test system: A549 lung cancer cells; conditions: for PI (IC50,dark/IC50,light) A549: blue light 460 nm
Protocol: (§1) The effect of Ir-H, Ir-Me, Ru-H, and Ru-Me on cell viability was evaluated in the A549 lung cancer and PC-3 prostate cancer cell lines by MTT assays. PC-3 cells were specifically chosen due to their high expression levels of GRPR on their surface, allowing for further evaluation of the activity of the BN3-derived metallopeptides Ir-BN and Ru-BN.[38],[51] In contrast, A549 cells express low levels of GRPR.[52] MRC-5 fibroblasts were used as a nonmalignant cell model.[53]Table 3 reports the half maximal inhibitory concentration (IC50) values obtained after treating the cells either under dark conditions or upon exposure to blue light at a dose of 24.1 J cm^–2. The photocytotoxicity index (PI), defined as the IC50,dark/IC50,light, is provided for each compound.
(§2) Stock solutions of the complexes and metallopeptides were initially prepared at a concentration of 5 mM in DMSO and then diluted in sterile distilled water to achieve a final concentration of 1 mM, with a resulting DMSO concentration of 20% v/v. Cells were seeded into 96-well plates at a density of 2500 cells/well for A549, 3500 cells/well for PC-3, and 5500 cells/well for MRC-5. Following 24 h of incubation for attachment, cells were treated in triplicate with freshly prepared working solutions of the compounds in the culture medium at concentrations ranging from 0.001 to 100 μM. The maximum DMSO concentration in the working solutions was 2% (v/v). The working concentrations for each compound were adjusted based on their cytotoxicity. Following a 4 h incubation period to allow internalization of the compounds into the cells, the plates were kept in dark conditions or exposed to blue (460 nm) or red (655 nm) light for 1 h using an LED system (LuxLight), providing a total dose of 24.1 J cm^–2. All plates were incubated in the dark for an additional 43 h. Cells were then washed with phosphate-buffered saline (PBS), and 100 μL of fresh culture medium containing 10% of 3-[4,5-dimethylthiazol-2-yl]-2,5 diphenyl tetrazolium bromide (MTT) solution (0.5 mg/mL) (Sigma- Aldrich) was added to each well. After a 2 h incubation period, the formazan crystals were dissolved in DMSO, and the absorbance was measured at 570 nm using a Multiscan Plate Reader (Synergy 4, Biotek, Winooski, USA). The concentration causing a 50% reduction in cell viability (IC50) was determined for each compound with the Gen5 software (BioTek). At least three independent experiments were conducted for each compound.

[2] = test system: MRC-5 fibroblasts; conditions: for PI (IC50,dark/IC50,light) MRC-5: blue light 460 nm
Protocol: as §1, §2

[3] = test system: PC-3 prostate cancer cells; conditions: for PI (IC50,dark/IC50,light) PC-3: blue light 460 nm
Protocol: as §1, §2

[4] = test system: PC-3 cells; assay: Superoxide anion generation (ROS-ID Superoxide Detection Kit); conditions: IC50,light 4 h, blue light 1 h
Protocol: The photocytotoxic effects of the complexes and metallopeptides were further elucidated by evaluating their ability to photogenerate ROS at the cellular level. PC-3 cells were treated with the compounds at the respective IC50,light and irradiated with blue light. Subsequently, ROS generation was measured using the 2′,7′-dichlorodihydrofluorescein diacetate (H2DCFDA) probe, which diffuses into cells and is oxidized by ROS to produce a green fluorescent signal. […] Nevertheless, to ascertain the potential contributions of other ROS to the photocytotoxic activity, the capacity of the compounds to undergo type I PDT processes, resulting in the production of superoxide anions (O2^•–), was examined using a specific fluorescent probe that emits an orange signal upon interaction with this radical. Ir-H, Ir-Me, and Ir-BN induced the most significant increase in O2^•– levels, with fold changes of 2.4, 3.5, and 3.4, respectively, compared to control cells. […] These findings highlight the diverse mechanisms of ROS generation employed by these compounds, in particular the Ir complexes, which may contribute to their overall photocytotoxic efficacy.
Figure 9 Intracellular ROS generation. PC-3 cells were treated with the indicated complexes and metallopeptides at their respective IC50,light for 4 h, followed by blue light irradiation for 1 h (460 nm, 24.1 J cm^–2). The elevation of general ROS (A) and superoxide anion (B) levels was determined with specific probes by flow cytometry. Bars represent the mean fold increase (±standard deviation) relative to control untreated cells from three independent experiments. * p < 0.05; ** p < 0.01, *** p < 0.001 compared to control cells.
A similar protocol was followed to evaluate superoxide production using the ROS-ID Superoxide Detection Kit (Enzo Life Sciences) according to the manufacturer’s instructions.

[5] = test system: PC-3 cells; assay: Mitochondrial membrane potential, JC-10 flow cytometry; conditions: IC50,light 4 h, blue light 1 h, control 63.0 ± 10.6%
Protocol: Figure 12 Effect on mitochondria function. PC-3 cells were incubated with the indicated compounds at the corresponding IC50,light for 4 h at 37 °C and then exposed to blue light for 1 h. Cells incubated with the medium alone served as the negative control. (A) Confocal microscopy images of the cells. Nuclei were stained blue with Hoechst (λex: 350 nm; λem: 461 nm), and mitochondria were labeled with MitoTracker Red CMXRos (λex: 579 nm; λem: 599 nm). Insets show a 3× magnification of the cells. Scale bars represent 50 μm in 1× images and 20 μm in 3× images. (B) Flow cytometry analysis of the effect of the complexes on mitochondrial membrane potential. […] A decrease in the percentage of cells emitting orange fluorescence indicates a loss of MMP. p < 0.05 and ** p < 0.01 compared to control cells.
Flow cytometry analysis using the mitochondrial specific dye JC-10 confirmed this effect. The fluorescence of JC-10 undergoes a reversible change from green to orange as MMP increases, due to the formation of JC-10 aggregates within polarized mitochondria. This property allows for the simultaneous detection of healthy and depolarized mitochondria. In control cells, orange fluorescence emission corresponding to healthy mitochondria was detected in 63.0 ± 10.6% of cells (Figure 12B). […] Furthermore, the complexes’ ability to photocatalytically oxidize NADH, a primary electron donor for the mitochondrial electron transport chain, may contribute to the mitochondrial damage.
Flow cytometry assessment of the mitochondrial membrane depolarization: PC-3 cells were seeded on 12-well plates at a density of 100000 cells per well. 24 h later, cells were treated with the compounds as described above. Cells were subsequently harvested using trypsinization and incubated with JC-10 dye (Deltaclon) according to the manufacturer’s protocol. A Novocyte flow cytometer was employed to analyze the fluorescence emission of JC-10 in 10000 cells. Fluorescence was detected at 590 nm (FL2) to identify the percentage of cells with healthy mitochondria and at 529 nm (FL1) to determine the percentage of cells with depolarized mitochondria. Each compound was evaluated in three independent experiments, and the mean and standard deviation of the results were represented.

[6] = A549, 4 h incubation, blue light 1 h (460 nm, 24.1 J cm^–2), MTT after 48 h, read-out: IC50 A549 Light
[7] = A549, 4 h incubation, kept in the dark 1 h, MTT after 48 h, read-out: IC50 A549 Dark
[8] = MRC-5, 4 h incubation, blue light 1 h (460 nm, 24.1 J cm^–2), MTT after 48 h, read-out: IC50 MRC-5 Light
[9] = MRC-5, 4 h incubation, kept in the dark 1 h, MTT after 48 h, read-out: IC50 MRC-5 Dark
[10] = PC-3, 4 h incubation, blue light 1 h (460 nm, 24.1 J cm^–2), MTT after 48 h, read-out: IC50 PC-3 Light
[11] = PC-3, 4 h incubation, kept in the dark 1 h, MTT after 48 h, read-out: IC50 PC-3 Dark

Cn1c2ccccc2c2ccnc(-c3ccc(/C=C/C(=O)O)cn3)c21.[Cl-].[Ir+3].[c-]1ccccc1-c1ccccn1.[c-]1ccccc1-c1ccccn1 [Ir-H]
IC50 [1, 6]: 3.32 ± 1.1 µM | IC50 [1, 7]: 35 ± 5.4 µM | PI (IC50,dark/IC50,light) A549 ([1]; A549): 10.5 | IC50 [2, 8]: 6.46 ± 0.801 µM | IC50 [2, 9]: 39.1 ± 2.4 µM | PI (IC50,dark/IC50,light) MRC-5 ([2]; MRC-5): 6.1 | IC50 [3, 10]: 9.23 ± 0.63 µM | IC50 [3, 11]: 32.2 ± 1.9 µM | PI (IC50,dark/IC50,light) PC-3 ([3]; PC-3): 3.49 and 3.5 | O2•– levels, fold change versus control cells [4]: 2.4 fold | population of cells emitting JC-10 orange fluorescence [5]: 16.6 ± 9.2%

Cn1c2ccccc2c2ccnc(-c3ccc(/C=C/C(=O)O)cn3)c21.[Cl-].[Cl-].[Ru+2].c1ccc(-c2ccccn2)nc1.c1ccc(-c2ccccn2)nc1 [Ru-H]
IC50 [1, 6]: 56.7 ± 1.6 µM | IC50 [1, 7]: 67.8 ± 6.7 µM | PI (IC50,dark/IC50,light) A549 ([1]; A549): 1.2 | IC50 [2, 8]: 43.5 ± 4.5 µM | IC50 [2, 9]: 53.9 ± 5.4 µM | PI (IC50,dark/IC50,light) MRC-5 ([2]; MRC-5): 1.2 | PI (IC50,dark/IC50,red light) MRC-5 ([2]; MRC-5, red light 655 nm): 0.9 | IC50 ([2]; MRC-5, red light 1 h (655 nm, 24.1 J cm^–2), MTT after 48 h, read-out: IC50,redlight MRC-5): 62.3 ± 7.1 µM | IC50 [3, 10]: 34.8 ± 4.3 µM | IC50 [3, 11]: 70.4 ± 2.7 µM | PI (IC50,dark/IC50,light) PC-3 ([3]; PC-3): 2.0 | PI (IC50,dark/IC50,red light) PC-3 ([3]; PC-3, red light 655 nm): 1.3 | IC50 ([3]; PC-3, red light 1 h (655 nm, 24.1 J cm^–2), MTT after 48 h, read-out: IC50,redlight PC-3): 54.3 ± 4.7 µM | population of cells emitting JC-10 orange fluorescence [5]: 28.2 ± 7.8%

CC(C)C[C@H](NC(=O)[C@H](CC(C)C)NC(=O)[C@H](Cc1c[nH]cn1)NC(=O)CNC(=O)[C@@H](NC(=O)[C@H](C)NC(=O)[C@H](Cc1c[nH]c2ccccc12)NC(=O)[C@H](CCC(N)=O)NC(=O)[C@H](CC(N)=O)NC(=O)CNC(=O)[C@H](CC(C)C)NC(=O)[C@H](CCCNC(=N)N)NC(=O)[C@H](CCC(N)=O)NC(=O)/C=C/c1ccc(-c2nccc3c4ccccc4n(C)c23)nc1)C(C)C)C(N)=O [Ir-BN] (X1-QRLGNQWAVGHLL-NH2)
IC50 ([1]; 4 h): 12.6 ± 1.3 µM | PI (IC50,dark/IC50,light) A549 ([1]; A549): 5.4 | IC50 ([2]; 4 h): 28.7 ± 5.9 µM | IC50,light in MRC-5, fold higher than that of Ir-H ([2]; MRC-5, blue light): 4.4 fold | PI (IC50,dark/IC50,light) MRC-5 ([2]; MRC-5): 2.8 | IC50,dark in MRC-5, fold higher than that of Ir-H ([2]; MRC-5, dark): 2.1 fold | IC50 ([3]; 4 h): 8.51 ± 0.8 µM | photoselectivity index (IC50,dark in nonmalignant cells/IC50,light in GRPR overexpressing cancer cells) ([3]; 24 h): 9.5 | PI (IC50,dark/IC50,light) PC-3 ([3]; PC-3): 4.1 | selectivity for PC-3 cells with respect to MRC-5 fibroblasts ([3]; after blue light): 3.4 fold | O2•– levels, fold change versus control cells [4]: 3.4 fold | population of cells emitting JC-10 orange fluorescence [5]: 16.0 ± 9.5%

COC(=O)/C=C/c1ccc(-c2nccc3c4ccccc4n(C)c23)nc1.[Cl-].[Ir+3].[c-]1ccccc1-c1ccccn1.[c-]1ccccc1-c1ccccn1 [Ir-Me]
IC50 [1, 6]: 0.0334 ± 0.0068 µM | IC50 [1, 7]: 0.471 ± 0.031 µM | PI (IC50,dark/IC50,light) A549 ([1]; A549): 14.2 | IC50 [2, 8]: 0.0313 ± 0.019 µM | IC50 [2, 9]: 1.12 ± 0.31 µM | PI (IC50,dark/IC50,light) MRC-5 ([2]; MRC-5): 35.8 | IC50 [3, 10]: 0.0723 ± 0.031 µM | IC50 [3, 11]: 1.17 ± 0.29 µM | PI (IC50,dark/IC50,light) PC-3 ([3]; PC-3): 16.2 | O2•– levels, fold change versus control cells [4]: 3.5 fold | population of cells emitting JC-10 orange fluorescence [5]: 21.2 ± 4.9%
